From ChEMBL document CHEMBL1157919, “Optimization of 7-alkene-3-quinolinecarbonitriles as Src kinase inhibitors” (Bioorg Med Chem Lett, 2010) come the findings set out here.

Data set [1] addresses T1, Proto-oncogene tyrosine-protein kinase Src (Homo sapiens, UniProt P12931).
Description: Inhibition of human recombinant Src after 70 mins by FRET assay
Data set [2] is described as follows: Plasma concentration in nude mouse at 50 mg/kg, po after 24 hrs. It is filed as ADME, organism-based. The arrangement: dose 50 mg/kg, route oral.
A short description of data set [3]: Half life in nude mouse microsomes. It is filed as ADME, Microsome.
For data set [4], the target named is RAC-alpha serine/threonine-protein kinase (Homo sapiens, UniProt P31749). In words: Inhibition of AKT.
The target of data set [5] is Serine/threonine-protein kinase mTOR (Homo sapiens, UniProt P42345). In words: Inhibition of mTOR.
The target of data set [6] is Tyrosine-protein kinase ABL1 (Homo sapiens, UniProt P00519). In words: Inhibition of Abl.
Data set [7] concerns the target Mitogen-activated protein kinase kinase kinase 8 (Homo sapiens, UniProt P41279). In words: Inhibition of TPL2.
The nature of data set [8]: Inhibition of IGFR.
A further data set relates to HT-29. In words: In vivo antitumor activity against human HT-29 cells at 150 mg/kg, po qd for 14 days measured on day 21. Type of data set: functional.
Data set [9] is described as follows: Inhibition of IKK.
Data set [10] can be described thus: Half life in human microsomes. It is filed as ADME, Microsome.
The nature of data set [11]: Half life in rat liver microsomes. Type of data set: ADME, Microsome.
In data set [12] the target is T1, Proto-oncogene tyrosine-protein kinase Src. In words: Inhibition of human recombinant Src at 10 uM after 70 mins by FRET assay.

Bounds are passed on as bounds.

T1 sequence (P12931 2-536 limits assumed): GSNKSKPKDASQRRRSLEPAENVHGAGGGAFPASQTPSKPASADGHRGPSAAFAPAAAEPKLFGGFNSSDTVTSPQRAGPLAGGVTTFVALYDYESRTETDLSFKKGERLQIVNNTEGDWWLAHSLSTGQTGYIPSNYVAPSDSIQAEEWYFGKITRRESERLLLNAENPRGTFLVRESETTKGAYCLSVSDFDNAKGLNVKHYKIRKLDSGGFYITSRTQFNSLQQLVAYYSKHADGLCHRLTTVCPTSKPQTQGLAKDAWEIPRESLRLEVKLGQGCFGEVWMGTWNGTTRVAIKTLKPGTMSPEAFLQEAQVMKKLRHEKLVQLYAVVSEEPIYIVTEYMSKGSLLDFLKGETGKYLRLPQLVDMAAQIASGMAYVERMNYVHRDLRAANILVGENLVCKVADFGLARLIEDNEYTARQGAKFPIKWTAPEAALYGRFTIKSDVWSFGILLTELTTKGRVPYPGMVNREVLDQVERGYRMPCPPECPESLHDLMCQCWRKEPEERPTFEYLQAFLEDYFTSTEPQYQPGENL
Tyrosine-protein kinase ABL1, sequence (P00519 whole entry): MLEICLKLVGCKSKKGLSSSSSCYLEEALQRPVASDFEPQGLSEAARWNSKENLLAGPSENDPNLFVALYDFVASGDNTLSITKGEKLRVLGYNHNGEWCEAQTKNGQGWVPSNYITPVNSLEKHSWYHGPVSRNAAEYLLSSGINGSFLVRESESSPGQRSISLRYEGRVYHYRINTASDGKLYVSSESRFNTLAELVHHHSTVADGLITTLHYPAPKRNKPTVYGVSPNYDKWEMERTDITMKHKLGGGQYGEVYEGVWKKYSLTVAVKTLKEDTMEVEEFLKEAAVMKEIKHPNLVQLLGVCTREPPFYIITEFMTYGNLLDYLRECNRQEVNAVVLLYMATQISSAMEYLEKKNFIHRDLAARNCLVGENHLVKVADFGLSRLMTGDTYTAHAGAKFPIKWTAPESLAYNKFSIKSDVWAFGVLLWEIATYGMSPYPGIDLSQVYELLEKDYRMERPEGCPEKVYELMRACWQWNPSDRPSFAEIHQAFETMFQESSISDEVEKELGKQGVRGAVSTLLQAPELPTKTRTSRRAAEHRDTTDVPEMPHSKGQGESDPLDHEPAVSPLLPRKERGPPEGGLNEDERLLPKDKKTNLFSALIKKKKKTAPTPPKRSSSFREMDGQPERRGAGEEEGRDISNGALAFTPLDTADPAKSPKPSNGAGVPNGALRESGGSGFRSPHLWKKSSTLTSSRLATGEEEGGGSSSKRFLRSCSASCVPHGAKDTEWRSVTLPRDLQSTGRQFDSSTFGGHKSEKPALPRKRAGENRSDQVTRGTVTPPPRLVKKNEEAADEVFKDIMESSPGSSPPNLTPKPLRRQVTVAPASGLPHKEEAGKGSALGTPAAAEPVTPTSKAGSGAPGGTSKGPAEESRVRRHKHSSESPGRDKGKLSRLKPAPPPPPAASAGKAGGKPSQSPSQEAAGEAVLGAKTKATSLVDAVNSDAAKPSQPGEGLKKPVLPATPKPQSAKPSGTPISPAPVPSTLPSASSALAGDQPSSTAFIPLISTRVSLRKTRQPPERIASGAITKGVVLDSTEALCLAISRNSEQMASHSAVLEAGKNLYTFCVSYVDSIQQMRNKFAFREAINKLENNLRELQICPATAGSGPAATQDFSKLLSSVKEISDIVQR
Mitogen-activated protein kinase kinase kinase 8, sequence (P41279 whole entry): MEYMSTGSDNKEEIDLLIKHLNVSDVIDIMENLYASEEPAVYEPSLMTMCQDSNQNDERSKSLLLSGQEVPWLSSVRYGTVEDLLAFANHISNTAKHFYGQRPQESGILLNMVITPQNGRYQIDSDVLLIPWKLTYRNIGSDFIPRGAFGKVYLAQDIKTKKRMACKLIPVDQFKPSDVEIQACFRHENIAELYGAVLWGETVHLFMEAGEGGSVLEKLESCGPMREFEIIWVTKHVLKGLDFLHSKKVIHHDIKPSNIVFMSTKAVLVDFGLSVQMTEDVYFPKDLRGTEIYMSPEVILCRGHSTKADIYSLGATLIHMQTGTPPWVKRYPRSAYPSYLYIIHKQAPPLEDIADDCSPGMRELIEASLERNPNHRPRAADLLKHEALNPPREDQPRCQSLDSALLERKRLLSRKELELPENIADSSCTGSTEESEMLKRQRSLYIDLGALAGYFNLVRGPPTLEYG
RAC-alpha serine/threonine-protein kinase, sequence (P31749 whole entry): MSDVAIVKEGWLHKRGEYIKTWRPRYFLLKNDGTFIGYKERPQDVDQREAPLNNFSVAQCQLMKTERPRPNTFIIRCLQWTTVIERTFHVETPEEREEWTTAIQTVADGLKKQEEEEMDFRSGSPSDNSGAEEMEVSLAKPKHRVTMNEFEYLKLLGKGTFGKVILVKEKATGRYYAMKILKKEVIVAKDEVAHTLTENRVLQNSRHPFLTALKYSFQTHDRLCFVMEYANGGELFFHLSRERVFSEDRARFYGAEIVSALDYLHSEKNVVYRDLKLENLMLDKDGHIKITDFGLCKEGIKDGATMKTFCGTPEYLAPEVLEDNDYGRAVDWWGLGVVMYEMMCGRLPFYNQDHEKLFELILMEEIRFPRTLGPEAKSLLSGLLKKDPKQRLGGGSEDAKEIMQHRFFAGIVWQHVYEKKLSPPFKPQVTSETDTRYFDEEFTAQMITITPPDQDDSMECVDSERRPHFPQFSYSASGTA

For `COc1cc(Nc2c(C#N)cnc3cc(/C=C/CCCN4CCOCC4)c(OC)cc23)c(Cl)cc1Cl`, the IC50 in data set [1] stood at 5.4 nM.

Take `COc1cc(Nc2c(C#N)cnc3cc(/C=C/c4ccc(CN(C)C)cc4)c(OC)cc23)c(Cl)cc1Cl`: the concentration at 24 h in [2] stood at 10 ng/mL. The compound further came in with an IC50 in [1] of 2.4 nM.

Compound `N#Cc1cnc2ccc(/C=C/CCN3CCOCC3)cc2c1Nc1ccc(Cl)cc1Cl` returned an IC50 in data set [1] of 1200 nM.

`COc1cc(Nc2c(C#N)cnc3cc(/C=C/CCN4CCN(C)CC4)c(OC)cc23)c(Cl)cc1Cl`: the results for the half-life in data set [3], in data set [10] and in data set [11] were 33 min, 11 min and 10 min, respectively. For the same compound, the IC50 in data set [4] is above 10000 nM; in [5] it was above 10000 nM; in data set [6], 0.4 nM; in data set [7], above 10000 nM; in data set [8], above 10000 nM; in [9], above 10000 nM. Also, the IC50 in [1] was 2.1 nM. Further, the T/C with HT-29 was 0.36.

As to `COc1cc(Nc2c(C#N)cnc3cc(/C=C/CCN4CCOCC4)ccc23)c(Cl)cc1Cl`, the midpoint of inhibition in data set [1], the IC50, lay at 15 nM.

For `COc1cc(Nc2c(C#N)cnc3cc(/C=C/c4cccc(CN(C)C)c4)c(OC)cc23)c(Cl)cc1Cl`, half-maximal inhibition in [1] (IC50) was put at 3 nM.

For the compound `COc1cc(Nc2c(C#N)cnc3cc(/C=C/CCCCN4CCOCC4)c(OC)cc23)c(Cl)cc1Cl`, the IC50 in data set [1] was found to be 18 nM.

Compound `COc1cc(Nc2c(C#N)cnc3cc(/C=C/CCN(C)C)c(OC)cc23)c(Cl)cc1Cl` gave a half-life in data set [11] above 30 min. Besides, half-maximal inhibition in data set [1] (IC50) required 2.5 nM.

In turn, `COc1cc(Nc2c(C#N)cnc3ccc(/C=C/CCN4CCOCC4)cc23)c(Cl)cc1Cl` yielded an IC50 in data set [1] of 340 nM. This counts as sub-micromolar.

In data set [2], `COc1cc(Nc2c(C#N)cnc3cc(OCCCN4CCN(C)CC4)c(OC)cc23)c(Cl)cc1Cl` [BOSUTINIB] yielded a concentration at 24 h of 40 ng/mL. In the data set with HT-29, this compound registered a T/C of 0.43.

`COc1cc(Nc2c(C#N)cnc3cc(/C=C/c4cccc(CN(C)C)n4)c(OC)cc23)c(Cl)cc1Cl` yielded a concentration at 24 h in data set [2] of 28 ng/mL. The same compound came in with an IC50 in [1] of 2.2 nM.

The compound `COc1cc(Nc2c(C#N)cnc3cc(/C=C/c4ccc(CN(C)C)cn4)c(OC)cc23)c(Cl)cc1Cl` returned a concentration at 24 h in data set [2] of 36 ng/mL. Moreover, the IC50 in data set [1] turned out to be 2.2 nM.

For the compound `COc1cc(Nc2c(C#N)cnc3cc(/C=C/CCCCCCCCCN4CCOCC4)c(OC)cc23)c(Cl)cc1Cl`, the IC50 in data set [1] was 130 nM.

In the case of `N#Cc1cnc2cc(/C=C/CCN3CCOCC3)ccc2c1Nc1ccc(Cl)cc1Cl`, it took 41 nM to reach half-maximal inhibition in data set [1] (IC50).

Take `COc1cc(Nc2c(C#N)cnc3cc(/C=C/CN4CCOCC4)c(OC)cc23)c(Cl)cc1Cl`: in [1], the midpoint of inhibition, the IC50, lay at 8.7 nM.

Regarding `COc1cc(Nc2c(C#N)cnc3cc(/C=C/c4cc(CN(C)C)ccn4)c(OC)cc23)c(Cl)cc1Cl`, 6.8 nM corresponded to half-maximal inhibition in data set [1] (IC50).

In [1], `COc1cc(Nc2c(C#N)cnc3cc(/C=C/CCN4CCOCC4)c(OC)cc23)c(Cl)cc1Cl` returned an IC50 of 4.8 nM.

As for `COc1cc(Nc2c(C#N)cnc3c(/C=C/CCN4CCOCC4)cccc23)c(Cl)cc1Cl`, in data set [12], the inhibition was 52%.

The compound `COc1cc(Nc2c(C#N)cnc3cc(/C=C/CCN4CCCCC4)c(OC)cc23)c(Cl)cc1Cl` showed a half-life in data set [11] above 30 min. Moreover, the IC50 in data set [1] is 2.6 nM.

Compound `CCN1CCN(CC/C=C/c2cc3ncc(C#N)c(Nc4cc(OC)c(Cl)cc4Cl)c3cc2OC)CC1` yielded a half-life in [11] above 30 min. This compound yielded an IC50 in data set [1] of 1.7 nM.
